Experimental data: ChEMBL document CHEMBL3638467, “Aminomethyl quinolone compounds” (2013)

The compounds below were run against Mitogen-activated protein kinase 8 (Homo sapiens, UniProt P45983) (assay: In Vitro Enzyme Assay: In vitro JNK1 assay.).
Chain of Mitogen-activated protein kinase 8 (P45983 whole entry): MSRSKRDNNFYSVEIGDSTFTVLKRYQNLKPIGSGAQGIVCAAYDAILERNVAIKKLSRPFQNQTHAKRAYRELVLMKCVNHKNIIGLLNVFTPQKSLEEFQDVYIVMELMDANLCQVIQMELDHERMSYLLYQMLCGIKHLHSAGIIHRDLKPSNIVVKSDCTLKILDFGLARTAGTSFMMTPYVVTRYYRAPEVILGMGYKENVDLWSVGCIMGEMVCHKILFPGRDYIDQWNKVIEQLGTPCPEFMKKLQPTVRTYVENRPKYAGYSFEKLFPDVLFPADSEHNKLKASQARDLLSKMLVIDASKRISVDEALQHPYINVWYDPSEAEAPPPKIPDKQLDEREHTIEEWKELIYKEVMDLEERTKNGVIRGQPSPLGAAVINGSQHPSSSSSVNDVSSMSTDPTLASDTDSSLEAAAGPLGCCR

IC50 | Structure (SMILES)
220 nM | CC(C)(O)CNC(=O)c1ccc(C(=O)NCc2cn(-c3ccccc3)c3cc(Cl)ccc3c2=O)cc1
40 nM | O=C(NCc1cn(-c2ccccc2F)c2cc(F)ccc2c1=O)c1cnn(-c2ccccc2)c1
8 nM | COC(=O)c1c(CNC(=O)c2cnc(N3CCOCC3)s2)c(=O)c2ccc(Cl)cc2n1-c1ccccc1
